From patent US20060111306A1, “DEHYDROEPHIANDROSTERONE AND UBIQUINONE COMPOSITIONS FOR TREATING ASTHMA AND BRONOCONSTRICTION” (priority 1995, published 2006)

Tested on: Intracellular Adenosine in Various Rat Tissues
Assay: In vivo effect on tissue adenosine levels (HPLC of 1,N6-ethenoadenosine)
Design: species or system Fischer 344 rats
Settings: rats
Description: Folinic acid (50 mg/kg) was administered intraperitoneally once daily for fourteen days. […] Hearts were removed from animals and flash frozen in liquid nitrogen with 10 seconds of death. Liver and lungs were removed en bloc and flash frozen with 30 seconds of death. Brain tissue was subsequently dissected.

Nc1nc(=O)c2c([nH]1)NCC(CNc1ccc(C(=O)N[C@@H](CCC(=O)O)C(=O)O)cc1)N2C=O (mixture of isomers) [Folinic Acid (F.A.), Folinic acid]
effect on adenosine levels, administered alone (in words) (folinic acid alone, all organs studied): increase in adenosine levels for all organs studied
effect of co-administration on steroid-mediated adenosine depletion (in words) (folinic acid co-administered with DHEA or methyltestosterone): completely abrogated steroid-mediated adenosine depletion
